# Assay results as given in paper PMC6753678, “Fueling Open Innovation for Malaria Transmission-Blocking Drugs: Hundreds of Molecules Targeting Early Parasite Mosquito Stages” (Frontiers in Microbiology, 2019).
# Like-named read-outs stand apart in the source and are kept apart here.
# Columns and labels:
# [1] = system: P. falciparum female gametocytes; parameters: method as in Miguel-Blanco et al 2017; conditions: TCAMS library screen; ref Miguel-Blanco et al 2017; read-out: Pf FGAA IC50; cited from earlier work
# [2] = system: HepG2 cells; conditions: cited from earlier work
# [3] = system: P. falciparum female gametocytes; test: P. falciparum female gametogenesis assay (Pf FGAA); conditions: 1: YES; 0: NO
# [4] = HepG2 value reported with Pf FGAA screen, ref Miguel-Blanco et al 2017
Compound,IC50 [1],"HepG2 cytoxicity (Pf FGAA screen) [2, 4]",Is compound selective in assay? Pf FGAA active? [3],HepG2 cytoxicity (Pf FGAA screen) [2]
Oc1c(C(Nc2ccccn2)c2ccc(Cl)cc2Cl)ccc2cccnc12 (stereo not drawn) [TCMDC-125559],1140 nM,12.74 µM,1 (1: YES),–
O=C(Nc1cc(C(F)(F)F)cc(C(F)(F)F)c1)Nc1ccc(Cl)c(Cl)c1 [TCMDC-125592],1430 nM,3.07 µM,0 (0: NO),–
ON=C(c1nc2ccccc2[nH]1)c1nc2ccccc2[nH]1 [TCMDC-125758],330 nM,4.96 µM,1 (1: YES),–
c1ccc(-c2nc(NC3CCCCC3)cc(C3CC3)n2)nc1 [TCMDC-125825],160 nM,48.99 µM,1 (1: YES),–
CC(C)(C)c1cc(NC2CC2)nc(-c2ccccn2)n1 [TCMDC-125826],120 nM,>100 µM,1 (1: YES),–
CCN(CCNS(C)(=O)=O)c1ccc(N)c(C)c1.O.O=S(=O)(O)O [TCMDC-125836],1140 nM,26.14 µM,1 (1: YES),–
Br.Oc1ccc(CCNCCCCCCNCCc2ccc(-c3ccccc3)cc2)cc1O [TCMDC-131268],10900 nM,13.18 µM,0 (0: NO),–
Br.CC(C)(Cc1ccc(Cl)cc1)NCCCCCCNCCc1ccc(O)c(O)c1 [TCMDC-131277],9660 nM,10.97 µM,0 (0: NO),–
C[C@H](Cc1ccc(OCCCCCCOc2ccc(C[C@@H](C)N[C@H](C)c3ccccc3)cc2)cc1)NC[C@H](O)c1cccc(Cl)c1.Cl [TCMDC-131564],720 nM,4.28 µM,0 (0: NO),–
Br.CCc1c(CCNCCCCCCNCCc2ccc(Br)cc2)ccc(O)c1O [TCMDC-132044],1300 nM,7.96 µM,0 (0: NO),–
Cc1c2ccncc2c(C)c2c1[nH]c1cc(Cc3ccccc3)c(O)cc12 [TCMDC-132053],1090 nM,1.23 µM,0 (0: NO),–
CCc1c(CCNC/C=C/C=C/CNCCc2ccc(OC)c(OC)c2CC)ccc(OC)c1OC.Cl [TCMDC-132061],2560 nM,4.68 µM,0 (0: NO),–
CCc1c(CCNCCCCCNCCc2ccc(OC)c(OC)c2CC)ccc(OC)c1OC.Cl [TCMDC-132064],2050 nM,4.68 µM,0 (0: NO),–
CCc1c(CCNCCCCCCNCCc2ccc3c(c2C)OCO3)ccc2c1OCO2.Cl [TCMDC-132093],1020 nM,3.89 µM,0 (0: NO),–
Cl.N#Cc1c(F)cc(N2CCC(NCC[C@H](N)Cc3ccc(F)c(F)c3)CC2)cc1F [TCMDC-132121],730 nM,–,0 (0: NO),4.58 µM
CN(C)Cc1cccc2nc(-c3csc(Cc4cc(Cl)ccc4OCc4ccccc4)n3)[nH]c12 [TCMDC-132174],2100 nM,13.04 µM,0 (0: NO),–
